The record followed here is ChEMBL document CHEMBL5465560, “Selectivity Literature for EUbOPEN Chemogenomic Library” (2024).

The target in assay [1] is T1, Serine/threonine-protein kinase BRSK2 (Homo sapiens) (UniProt Q8IWQ3).
T1 sequence (whole entry): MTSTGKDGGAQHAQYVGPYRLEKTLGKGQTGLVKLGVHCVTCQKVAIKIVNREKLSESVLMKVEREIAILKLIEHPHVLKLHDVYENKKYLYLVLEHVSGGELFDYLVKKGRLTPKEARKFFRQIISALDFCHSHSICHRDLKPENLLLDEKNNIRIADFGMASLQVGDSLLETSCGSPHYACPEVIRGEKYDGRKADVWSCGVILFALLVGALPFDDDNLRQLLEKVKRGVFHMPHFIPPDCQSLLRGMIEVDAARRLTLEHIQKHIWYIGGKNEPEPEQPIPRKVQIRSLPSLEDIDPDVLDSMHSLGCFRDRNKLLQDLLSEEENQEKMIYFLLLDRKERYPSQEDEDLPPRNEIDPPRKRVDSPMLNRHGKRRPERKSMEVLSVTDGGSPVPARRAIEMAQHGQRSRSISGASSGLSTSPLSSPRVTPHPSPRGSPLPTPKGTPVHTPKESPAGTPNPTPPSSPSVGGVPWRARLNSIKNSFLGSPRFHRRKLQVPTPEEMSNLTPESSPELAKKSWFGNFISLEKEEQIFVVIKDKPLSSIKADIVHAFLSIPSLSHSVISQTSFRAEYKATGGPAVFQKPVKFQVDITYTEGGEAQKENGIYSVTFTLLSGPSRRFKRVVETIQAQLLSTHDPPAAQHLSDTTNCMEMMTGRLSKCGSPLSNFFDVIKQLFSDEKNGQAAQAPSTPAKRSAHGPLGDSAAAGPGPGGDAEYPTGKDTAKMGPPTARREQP
The experiment in a line: Selectivity interaction (ProQinase) EUB0000171b BRSK2.

Assay [2] has as its target T2, MAP kinase-activated protein kinase 5 (Homo sapiens) (UniProt Q8IW41).
T2 sequence (whole entry): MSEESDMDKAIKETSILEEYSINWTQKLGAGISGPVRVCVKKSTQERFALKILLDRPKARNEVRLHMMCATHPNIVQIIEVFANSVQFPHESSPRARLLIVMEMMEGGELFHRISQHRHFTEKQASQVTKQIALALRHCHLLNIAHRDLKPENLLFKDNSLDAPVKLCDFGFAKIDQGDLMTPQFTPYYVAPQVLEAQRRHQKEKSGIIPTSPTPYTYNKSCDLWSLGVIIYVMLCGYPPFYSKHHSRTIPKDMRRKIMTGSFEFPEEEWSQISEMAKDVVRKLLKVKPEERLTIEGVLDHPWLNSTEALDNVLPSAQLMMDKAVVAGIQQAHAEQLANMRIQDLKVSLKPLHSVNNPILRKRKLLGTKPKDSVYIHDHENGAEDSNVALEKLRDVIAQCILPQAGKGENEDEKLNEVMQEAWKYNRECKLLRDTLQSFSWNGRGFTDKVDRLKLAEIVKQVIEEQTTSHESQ
The experiment in a line: Selectivity interaction (Millipore kinase profiler) EUB0000124b MAPKAPK5. To be noted: at 10 µM.

The target of assay [3] is Serine/threonine-protein kinase SBK1 (Homo sapiens) (UniProt Q52WX2). The experiment in a line: Selectivity interaction (KinomeScan (DiscoverX)) EUB0000655a SBK1. The settings on record: at 10 µM.
For assay [4], the target named is Endothelin receptor type B (Homo sapiens) (UniProt P24530). The experiment in a line: Selectivity interaction (Eurofins CEREP Diversity Profile (receptors and ion channels)) EUB0000279b EDNRB. To be noted: at 10 µM.
Assay [5] addresses T3, Cyclin-dependent kinase 11A (Homo sapiens) (UniProt Q9UQ88).
T3 sequence (whole entry): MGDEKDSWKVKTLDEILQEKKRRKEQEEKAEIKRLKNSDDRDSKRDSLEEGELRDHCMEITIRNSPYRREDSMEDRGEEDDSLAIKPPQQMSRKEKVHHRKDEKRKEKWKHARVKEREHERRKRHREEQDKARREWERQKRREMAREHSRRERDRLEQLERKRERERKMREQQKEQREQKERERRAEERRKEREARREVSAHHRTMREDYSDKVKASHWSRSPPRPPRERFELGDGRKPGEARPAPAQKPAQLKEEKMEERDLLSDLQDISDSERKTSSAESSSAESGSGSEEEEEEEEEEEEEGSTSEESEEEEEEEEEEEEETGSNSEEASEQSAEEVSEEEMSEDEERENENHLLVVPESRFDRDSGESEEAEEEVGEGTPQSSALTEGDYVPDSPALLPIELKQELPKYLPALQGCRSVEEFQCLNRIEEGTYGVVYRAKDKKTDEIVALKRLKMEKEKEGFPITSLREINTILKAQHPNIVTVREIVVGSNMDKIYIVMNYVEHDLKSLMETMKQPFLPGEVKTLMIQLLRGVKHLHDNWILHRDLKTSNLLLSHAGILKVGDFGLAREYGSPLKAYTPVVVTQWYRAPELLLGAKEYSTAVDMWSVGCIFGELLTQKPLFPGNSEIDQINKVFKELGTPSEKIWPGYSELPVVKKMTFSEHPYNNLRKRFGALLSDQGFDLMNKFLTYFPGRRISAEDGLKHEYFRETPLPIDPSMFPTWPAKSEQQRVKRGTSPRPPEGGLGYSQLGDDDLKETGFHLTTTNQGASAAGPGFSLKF
The experiment in a line: Selectivity interaction (ActivX KiNativ screen (kinase selectivity in THP-1 cell lysates)) EUB0000639a CDK11A. It is filed as subcellular. The settings on record: lysate, at 0.2 µM.

The target in assay [6] is T4, Aurora kinase A (Homo sapiens) (UniProt O14965).
T4 sequence (whole entry): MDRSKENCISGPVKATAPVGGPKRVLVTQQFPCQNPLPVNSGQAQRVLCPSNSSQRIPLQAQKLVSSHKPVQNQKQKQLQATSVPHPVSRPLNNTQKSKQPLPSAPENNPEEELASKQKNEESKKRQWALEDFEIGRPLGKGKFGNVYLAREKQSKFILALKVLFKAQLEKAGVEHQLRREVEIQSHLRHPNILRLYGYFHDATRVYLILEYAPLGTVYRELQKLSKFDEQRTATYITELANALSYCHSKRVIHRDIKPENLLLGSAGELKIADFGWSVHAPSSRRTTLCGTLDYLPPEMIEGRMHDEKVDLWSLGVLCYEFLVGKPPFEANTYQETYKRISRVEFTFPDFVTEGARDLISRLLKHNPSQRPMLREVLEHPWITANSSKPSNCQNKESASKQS
The experiment in a line: Selectivity interaction (ActivX KiNativ screen (kinase selectivity in THP-1 cell lysates)) EUB0000639a STK6. The assay is classed as subcellular. To be noted: lysate, at 5 µM.

Assay [7] addresses Casein kinase I isoform gamma-2 (Homo sapiens) (UniProt P78368). The settings on record: at 10 µM.
The target in assay [8] is MAP kinase-interacting serine/threonine-protein kinase 2 (Homo sapiens, UniProt Q9HBH9). The experiment in a line: Selectivity interaction (KinomeScan (DiscoverX)) EUB0000595a MKNK2. To be noted: at 10 µM.
Chain of MAP kinase-interacting serine/threonine-protein kinase 2 (Q9HBH9 whole entry, looked up): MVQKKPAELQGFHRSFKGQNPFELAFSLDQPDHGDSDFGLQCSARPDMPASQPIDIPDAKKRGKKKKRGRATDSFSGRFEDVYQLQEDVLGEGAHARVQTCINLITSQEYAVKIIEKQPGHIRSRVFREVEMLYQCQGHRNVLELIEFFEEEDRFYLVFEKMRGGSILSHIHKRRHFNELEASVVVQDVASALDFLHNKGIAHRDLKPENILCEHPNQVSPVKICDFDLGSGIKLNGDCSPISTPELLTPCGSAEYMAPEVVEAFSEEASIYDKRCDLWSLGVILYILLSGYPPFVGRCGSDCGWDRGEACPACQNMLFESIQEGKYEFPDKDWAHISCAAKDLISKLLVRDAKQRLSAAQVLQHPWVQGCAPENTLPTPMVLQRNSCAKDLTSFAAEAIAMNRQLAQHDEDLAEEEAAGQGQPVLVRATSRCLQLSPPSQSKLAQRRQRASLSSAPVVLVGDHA

Chain of Endothelin receptor type B (Homo sapiens) (P24530 whole entry): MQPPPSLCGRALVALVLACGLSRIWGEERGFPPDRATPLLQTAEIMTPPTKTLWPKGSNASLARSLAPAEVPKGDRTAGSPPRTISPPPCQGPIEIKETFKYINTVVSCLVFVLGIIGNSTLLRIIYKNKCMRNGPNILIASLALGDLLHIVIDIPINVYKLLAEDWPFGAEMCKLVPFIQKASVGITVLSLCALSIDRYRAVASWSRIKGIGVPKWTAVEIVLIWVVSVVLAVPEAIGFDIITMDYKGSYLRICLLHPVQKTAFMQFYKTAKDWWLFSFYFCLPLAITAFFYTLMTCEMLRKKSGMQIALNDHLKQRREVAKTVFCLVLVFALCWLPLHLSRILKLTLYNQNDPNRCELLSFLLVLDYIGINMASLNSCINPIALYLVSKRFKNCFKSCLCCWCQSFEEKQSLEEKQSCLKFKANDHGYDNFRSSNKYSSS
Chain of Serine/threonine-protein kinase SBK1 (Homo sapiens) (Q52WX2 whole entry): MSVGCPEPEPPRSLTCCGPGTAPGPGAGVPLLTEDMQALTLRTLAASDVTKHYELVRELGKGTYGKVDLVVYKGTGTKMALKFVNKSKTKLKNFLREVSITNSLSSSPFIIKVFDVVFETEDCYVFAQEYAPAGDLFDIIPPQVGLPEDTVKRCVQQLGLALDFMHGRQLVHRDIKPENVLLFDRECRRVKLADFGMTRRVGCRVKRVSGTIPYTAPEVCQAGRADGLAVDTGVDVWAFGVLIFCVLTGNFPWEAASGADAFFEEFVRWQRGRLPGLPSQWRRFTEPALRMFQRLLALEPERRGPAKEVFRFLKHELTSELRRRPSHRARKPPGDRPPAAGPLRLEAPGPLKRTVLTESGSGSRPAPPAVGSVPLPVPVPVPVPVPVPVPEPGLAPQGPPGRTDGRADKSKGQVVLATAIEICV
Chain of Casein kinase I isoform gamma-2 (Homo sapiens) (P78368 whole entry, looked up, canonical isoform): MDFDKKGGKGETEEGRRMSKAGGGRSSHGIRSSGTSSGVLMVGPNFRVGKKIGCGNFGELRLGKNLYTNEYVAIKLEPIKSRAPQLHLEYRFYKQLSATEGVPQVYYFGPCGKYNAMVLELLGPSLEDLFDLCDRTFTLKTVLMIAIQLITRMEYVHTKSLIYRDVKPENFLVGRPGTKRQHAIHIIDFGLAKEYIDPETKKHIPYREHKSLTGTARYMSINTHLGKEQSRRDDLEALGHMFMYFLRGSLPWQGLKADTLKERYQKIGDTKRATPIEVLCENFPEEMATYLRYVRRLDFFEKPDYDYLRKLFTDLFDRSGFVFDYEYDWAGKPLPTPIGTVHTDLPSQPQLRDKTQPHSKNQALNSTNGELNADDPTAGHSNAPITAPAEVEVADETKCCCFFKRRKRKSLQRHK

On to `C=CC(=O)Nc1cccc(C(=O)Nc2ccc(Nc3cc(-c4[nH]c(SC)nc4C)ccn3)cc2)c1`, for which the % of control was 103% in assay [1] (at 1 µM) and 85% in assay [1] (at 5 µM).

As for `CC(=O)Nc1cccc(-n2c(=O)n(C3CC3)c(=O)c3c(Nc4ccc(I)cc4F)n(C)c(=O)c(C)c32)c1`, the % of control in assay [2] was determined as 91%.

Molecule `CN(C)CCOc1ccc(-c2nc(-c3ccncc3)c(-c3ccc4c(c3)CC/C4=N\O)[nH]2)cc1` returned a % of control in assay [3] of 83%.

`CC(=O)c1cc(-c2ccccc2OCC2CC2)c2ncccn12` displayed a % of control in assay [4] of 84%.

For `CC[C@@H]1[C@H](F)C(=O)N[C@@H]1COc1nccc2cc(C(N)=O)c(OC)cc12` [ZIMLOVISERTIB], the figures for the % of inhibition in assay [5] and in assay [6] were 7.2% and 57.8%, respectively.

Take `COCC(=O)NC/C=C/c1ccc2ncnc(Nc3ccc(Oc4ccc(C)nc4)c(C)c3)c2c1` [CP-724714]: the % of control in assay [7] turned out to be 100%; in assay [8], 1.4%.
